Laboratory results as given in patent publication US7339042B2, “Gene delivery to tumors” (University of Florida Research Foundation, Inc., priority 2003, dated 2008).

Columns and labels:
rat cerebral arteries = assay: Cell viability staining of arteries (propidium iodide, H3334) after peptide; format: cell-based; settings: after treatment with peptide
Protocol: No PI statined smooth muscle cell nuclei were observed.
Effect of peptide on endothelial and smooth muscle function was evaluated by histamine (0.3 and 1 μM) and bradykinin (0.5 μM) (endothelium-dependent vasodilators) and 16 and 60 mM KCl (results in dilation and constriction of arteries by hyperpolarizing and depolarizing smooth muscle, respectively). These drug solutions were added to the superfusate and applied to the arteries extraluminally for 10 to 15 min before and after intraluminal perfusion with peptides. Effects of these agents were expressed as percent change in myogenic tone (decrease for dilators and increase for constrictors). Experiments were concluded by exposing the arteries to calcium free PCSF to obtain the passive diameter. Cell viability was determined by adding H3334 (Hoechst viability stain, final concentration 1 μM) and propidium iodide (final concentration 1 μM) to the arteriograph after the peptide incubation. Fluorescent micrographs were taken of the vessels after incubation with peptides and following addition of the vital stains using Till Photonics imaging system (Martinsried, Germany).

[1] = tested on: endothelial cells and smooth muscle cells of rat cerebral arteries; assay: Uptake of fluorescent peptides by pressure-mounted rat cerebral arteries; format: cell-based; settings: intraluminal perfusion of fluorescent peptide
Protocol: Tat-P16 peptides were prepared and labeled with fluorescein for use in uptake studies using intact blood vessels isolated from rat brain. Blood vessels were dissected from rat brain and stabilized in an isolated perfusion system in which vessels were attached on either end to catheters and placed under physiological pressure. Following a 10 minute perfusion of the isolated vessels with flurorescent Tat-P16 peptide (1 μM), vessels were examined for uptake of the peptides. […] Within the endothelial cells, the labeled peptides were seen to be localized to the cell nuclei, further confirming uptake of the peptides by the cells.
The peptides are fairly labile in the media and approximately 50% are degraded upon incubation at 37° C. in complete media (qualitative analysis by PAGE) after 1 hour. […] Uptake of these peptides and cell killing activity was tested in a 3 dimensional organ culture using rat cerebral arteries cultured under physiological pressure and flow. A segment of the rat cerebral artery is surgically removed and placed in ringer's solution. Using a surgical stereoscope, the blood vessel is tied at either end to two cannulas on a teflon stage. Ringer's solution is perfused through the lumen of the vessel at a constant rate that maintains physiologic hydrostatic pressure. The fluorescent peptide was introduced intraluminally by perfusing a 1 μM solution of peptide through the lumen over a 10 minute period.
Rats were anesthetized by intraperitoneal injection of pentobarbital sodium (160 mg/kg) and killed by decapitation. The brain was removed and placed in an ice-cold oxygenated physiological cerebrospinal fluid (PCSF, see below for composition). Cerebellar arteries were isolated and mounted in an arteriograph as described previously (Knot and Nelson 1998). The arteriograph was placed on an inverted microscope and the artery was visualized with a monochrome CCD camera coupled to a calibrated video caliper system to measure arterial diameter. The arteries were slowly pressurized to 70 mmHg under no flow conditions using a pressure servo-null system (Living Systems Inc., Burlington Vt.), and warmed to 37° C. while being continuously superfused (5 ml/min) with PCSF bubbled with 21% O2, 5% CO2, 74% N2 (pH 7.35-7.40 in the bath). […] Myogenic tone is calculated by the following equation: Myogenic tone=(Dp−Da)/Dp×100
In some experiments, the arterial segments were denuded of endothelium by passing an air bubble through the lumen, thus exposing the smooth muscle cells to luminally administered peptides. Constriction to pressure and 60 mM KCl and dilation of arteries with myogenic tone to 16 mM KCl were used as benchmarks of functional arteries. Peptide containing PCSF was perfused intraluminally at an inlet pressure of 70 mmHg with the outlet open, for 20 min and then perfused with normal PCSF. This procedure ensures a 20 min of exposure of the arteries to the peptide.

[2] = Fusion peptide cell killing, propidium iodide/FACS viability, T98G cells; format: cell-based, human; settings: peptides in complete media for 1 hr, Table 2, read-out: % Viable Cells
Protocol: (§1) Other experiments were performed using two glioma cell lines, i.e., T98G and RG2. 1×10^6 cells per well were incubated in 6-well plates with peptides in complete media for 1 hr. Cells were removed from the plate using a cell stripper and the percentage of viable cells was determined by staining with propidium iodide and analyzing by fluorescence activated cell sorting (FACS).
(§2) Cell viability studies were performed by plating the cells under the same conditions as the uptake studies. Cells were incubated with fluorescent peptides for 1 hr at 37° C. The cells were removed from the plate using cell striper. They were labeled with propidium iodide and fluorescein-AM. Percent PI positive cells were determined by FACS.

T98G cells = assay: as above; format: cell-based, human
Protocol: as §1, §2

[3] = tested on: two human glioblastoma cell lines and a rat glioma cell line; assay: Fluorescein peptide uptake, fluorescence microscopy, three glioma lines; format: cell-based; settings: 1 μM peptide, 10^6 cells, all three cell types
Protocol: Synthetic peptides labeled with an N-terminal fluorescein were synthesized to test the ability of a shuttle domain to enter brain tumor and endothelial cells. The amino acid sequences for the shuttle domain was derived from HIV Tat amino acid 47 to 56 ([…] SEQ ID NO:23)(Robert-Guroff et al., J. Virol. 64:3391-3398, 1990) to which AGGG was added to the N-terminus, and the antennapedia homeodomain from drosophila (ANT) ([…] SEQ ID NO:24) (Astriab-Fisher et al., Pharm. Res., 19:744-754, 2002). A synthetic peptide (PTD-5) reported to have similar properties as Tat and ANT was also tested (Mai J. C. et al, Cancer Res. 2001; 61: 7709-7712.). Uptake was tested in two human glioblastoma cell lines and a rat glioma cell line, the latter being used for the rat brain tumor model. A 1 μM concentration of each peptide was added to 10^6 cells in a 6 well plate. […] The Tat and ANT peptides were doubled in length by the addition of […] (SEQ ID NO: 25), amino acids 42 to 55 from a human cyclin-dependent kinase inhibitor 2A (melanoma, p16, inhibits CDK4) (CDKI), transcript variant 4, mRNA (accession no. NM_058195). This domain binds MDM2 and inhibit ubiquination of P53, a tumor suppressor protein. […] Only the combination of Tat-CDKI was toxic to the cells, 65% killing for T98G and 61% killing for RG2 cells. […] Similar results were obtained with A172 cells. […]

[4] = tested on: T98G cells, RG2 cells and A172 cells; assay: Cell viability assay of chimeric peptides in three cell types; format: cell-based, human and rat; settings: fixed concentration, 30-minute incubation
Protocol: Synthetic peptides labeled with an N-terminal fluorescein were synthesized to test the ability of a shuttle domain to enter brain tumor and endothelial cells. The amino acid sequences for the shuttle domain was derived from HIV Tat amino acid 47 to 56 ([…] SEQ ID NO:23)(Robert-Guroff et al., J. Virol. 64:3391-3398, 1990) to which AGGG was added to the N-terminus, and the antennapedia homeodomain from drosophila (ANT) ([…] SEQ ID NO:24) (Astriab-Fisher et al., Pharm. Res., 19:744-754, 2002). A synthetic peptide (PTD-5) reported to have similar properties as Tat and ANT was also tested (Mai J. C. et al, Cancer Res. 2001; 61: 7709-7712.). Uptake was tested in two human glioblastoma cell lines and a rat glioma cell line, the latter being used for the rat brain tumor model. A 1 μM concentration of each peptide was added to 10^6 cells in a 6 well plate. […] The Tat and ANT peptides were doubled in length by the addition of […] (SEQ ID NO: 25), amino acids 42 to 55 from a human cyclin-dependent kinase inhibitor 2A (melanoma, p16, inhibits CDK4) (CDKI), transcript variant 4, mRNA (accession no. NM_058195). […]
The cytotoxicity of the chimeric peptides was characterized using a cell viability assay. […] After a 30-minute incubation, cells were removed from the plate, stained with propidium iodide and the % positive cells were determined by FACS (fluorescent activated cell scanning). […]

In the case of `C[C@H](N)C(=O)NCC(=O)NCC(=O)NCC(=O)N[C@@H](Cc1ccc(O)cc1)C(=O)NCC(=O)N[C@@H](CCCNC(=N)N)C(=O)N[C@@H](CCCCN)C(=O)N[C@@H](CCCCN)C(=O)N[C@@H](CCCNC(=N)N)C(=O)N[C@@H](CCCNC(=N)N)C(=O)N[C@@H](CCC(N)=O)C(=O)N[C@@H](CCCNC(=N)N)C(=O)N[C@@H](CCCNC(=N)N)C(=O)N[C@@H](CCCNC(=N)N)C(=O)O` [Tat], the “propidium iodide staining of blood vessels” value (rat cerebral arteries) is reported as “no PI stained nuclei”, the “labeling/uptake by endothelial cells” value [1] is reported as “selectively labeling the endothelial nuclei” and the “labeling/uptake by smooth muscle cells” value [1] is reported as “did not label the smooth muscle cells”. The viability [2] was 94.9%, the “% killing (toxicity)” value (T98G cells; 10 μM peptide, 1 hr) was “no toxicity” and the “% Viable Cells” value (T98G cells; peptides in complete media for 1 hr, Table 2) was “ineffective”. For the same compound, the “fluorescence labeling of cells (uptake)” value [3] was “preferentially labeled the cell nuclei” and the cells killed [4] was “No impact on cell viability”.
